Assay results from patent publication EP0906100B1, “USE OF 5-HT 1A? RECEPTOR ANTAGONISTS FOR THE TREATMENT OF URINARY INCONTINENCE” (RECORDATI S.A., priority 1996, dated 1997).
Where two headings read alike, the source gives them in different places. Blank lines part the entries; values can stand above or below the compound they belong to.

Assays:
[1] = tested on: cystometric parameters (bladder volume capacity, micturition pressure); assay: Cystometric parameters (BVC, MP) in the conscious rat; type: in vivo, rats; details: for BVC before treatment / MP before treatment: baseline; for BVC before treatment / MP before treatment / BVC after treatment / MP after treatment: mean±S.E.; for ED50: Rattus norvegicus, read-out: approximate ED50 value, reduction of MP
Description: Male Sprague Dawley rats (Crl: CD° BR) weighing 250-350 g were used. The animals were housed with free access to food and water and maintained on a forced 12 h alternating light-dark cycle at 22-24°C for at least one week, except during performance of the experiment.
An approximately 10 mm long midline incision was made in the shaved and cleaned abdominal wall. The urinary bladder was gently freed from adhering tissues, emptied, and then cannulated, via an incision at the dome, with a polyethylene cannula (Portex PP30), which was permanently sutured with silk thread. The cannula was exteriorized through a subcutaneous tunnel in the retroscapular area, where it was connected with a plastic adapter to avoid the risk of removal by the animal. For intravenous (i.v.) injection of test compounds, a PE 50 polyethylene tubing filled with physiological saline was inserted into the jugular vein and exteriorized in the retroscapular area.
Since cystometrographic parameters have been reported to be influenced by the time elapsed after catheter implantation […].
On the day of the experiment, the rats were placed in Bollman's cages; after a stabilization period of 20 min, the free tip of the bladder catheter was connected through a T-shaped tube to a pressure transducer (Bentley T 800/Marb P 82) and to a peristaltic pump (Gilson minipuls 2) for a continuous infusion, at the constant rate of 0.1 ml/min, of saline solution into the urinary bladder. The intraluminal pressure signal during infusion was continuously recorded on a polygraph (Battaglia Rangoni KO 380 with ADC1/T amplifier). Two urodynamic parameters were evaluated: bladder volume capacity (BVC) and micturition pressure (MP). BVC (in ml) is defined as the minimum volume infused after which detrusor contraction (followed by micturition) occurs. MP (in mmHg) is defined as the maximal intravesical pressure induced by the contraction of detrusor during micturition. Basal BVC and MP values were calculated as the means of the first two recorded cystometrograms. At this point, the infusion was interrupted and the test compounds were administered. Fifteen minutes after intravenous administration, or one hour after oral drug administration, two additional cystometrograms were recorded in each animal and the mean values of the two cystometrographic parameters were calculated.
The statistical significance of the differences in urodynamic parameter values was evaluated by Student's t test for paired data. Only changes showing a probability P<0.01 were considered to be significant.

[2] = tested on: pre-synaptic 5-HT1A receptor; assay: Antagonism of hypothermia induced by 8-OH-DPAT in mice; type: in vivo; details: s.c., hypothermia induced by 0.5 mg/kg s.c. 8-OH-DPAT
Description: Antagonism of hypothermia induced by 8-OH-DPAT in mice:
The antagonistic effect of 5-HT1A receptor antagonists on hypothermia induced by 8-OH-DPAT was evaluated by the method of Moser (Moser, Eur. J. Pharmacol., 193, 165, 1991) with minor modifications.
Male CD-1 mice (28-38 g) obtained from Charles River (Italy) were housed in a climate-controlled room (temperature 22 ± 2°C; humidity 55 ± 15%) and maintained on a 12 h light/dark cycle with free access to food and water. On the day of experiment, mice were placed singly in clear plastic boxes under the same ambient conditions. Body temperature was measured by the insertion of a temperature probe (Termist TM-S, LSI) into the rectum to a depth of 2 cm. Rectal temperature was measured immediately prior to subcutaneous injection of the test compound and 30 min later. All animals then received 8-OH-DPAT (0.5 mg/kg s.c.) and their temperature was measured 30 min later. For each animal, temperature changes were calculated with respect to pretreatment values and the mean values were calculated for each treatment group.

[3] = biological target: T1, 5-HT1A receptor (Rattus norvegicus, UniProt P19327); assay: [3H]8-OH-DPAT binding (5HT1A receptors), rat hippocampi; details: 1 nM [3H]8-OH-DPAT, read-out: Binding affinity for the 5-HT1A receptor, Ki
T1 construct: Rat hippocampi were homogenized in 50 volumes of ice-cold 50 mM Tris-HCl pH 7.4; from tissue; host or cells: rat hippocampus membranes
T1 sequence (P19327 1-422): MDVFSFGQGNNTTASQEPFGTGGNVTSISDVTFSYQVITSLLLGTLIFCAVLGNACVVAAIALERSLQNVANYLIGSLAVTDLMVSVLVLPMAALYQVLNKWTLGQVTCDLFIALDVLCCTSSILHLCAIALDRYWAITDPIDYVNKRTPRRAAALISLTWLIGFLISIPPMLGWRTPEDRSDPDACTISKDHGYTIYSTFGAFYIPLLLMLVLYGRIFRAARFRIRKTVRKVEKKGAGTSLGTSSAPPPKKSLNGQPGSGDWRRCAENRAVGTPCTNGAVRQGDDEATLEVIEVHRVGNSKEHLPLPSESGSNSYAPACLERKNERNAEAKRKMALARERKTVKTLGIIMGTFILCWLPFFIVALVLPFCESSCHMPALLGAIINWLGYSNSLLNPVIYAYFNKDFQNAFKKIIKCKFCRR
Description: [^3H]8-OH-DPAT binding (5HT1A receptors):
Rat hippocampi were homogenized in 50 volumes of ice-cold 50 mM Tris-HCl pH 7.4. The homogenates were centrifuged at 48,000 x g for 10 minutes, and the pellets were resuspended in the same volume of ice-cold buffer, incubated for 10 minutes at 37°C, centrifuged and resuspended two more times. The final pellets obtained were resuspended in 100 volumes of 50 mM Tris-HCl, pH 7.4, containing 0.1 % ascorbic acid and 10 µM pargyline. 1 ml samples were incubated for 30 min at 25°C with 1 nM [^3H]8-OH-DPAT, in absence or presence of different concentrations (10^-5 to 10^-10 M) of the test compound. Non-specific binding was determined in the presence of 10 µM 5-HT. The incubations were terminated by rapid filtration through Whatman GF/B filters using a Brandel cell harvester, after which the filters were washed with 3 x 3 ml of ice-cold buffer. The radioactivity retained on the filters was determined by liquid scintillation counting.

[4] = 100 µg/kg i.v., 15 min after injection
[5] = 300 µg/kg i.v., 15 min after injection
[6] = 1000 µg/kg i.v., 15 min after injection
[7] = 1 mg/kg p.o., 1 hour after oral administration
[8] = 2000 µg/kg i.v., 15 min after injection
[9] = 3 mg/kg p.o., 1 hour after oral administration
[10] = 10 mg/kg p.o., 1 hour after oral administration
[11] = conscious rats, i.v., NAN-190 up to the highest administrable dose of 300 µg/kg

Compound: COc1ccccc1N1CCN(CCN(C(=O)C2CCCCC2)c2ccccn2)CC1 [Compound A, N-{2-[4-(2-methoxyphenyl)-1-piperazinyl]-ethyl}-N-(2-pyridyl)-cyclohexanecarboxamide]
BVC before treatment ([1]; 100 µg/kg i.v. group): 0.65 ± 0.06 mL | MP before treatment ([1]; 100 µg/kg i.v. group): 93.0±8.3 mmHg | BVC % change [1, 4]: +4% | MP % change [1, 4]: -10% | BVC after treatment [1, 4]: 0.66 ± 0.08 mL | MP after treatment [1, 4]: 83.8±8.7 mmHg | BVC before treatment ([1]; 300 µg/kg i.v. group): 0.47 ± 0.05 mL | MP before treatment ([1]; 300 µg/kg i.v. group): 78.7±5.8 mmHg | BVC % change [1, 5]: +32% | MP % change [1, 5]: -11% | BVC after treatment [1, 5]: 0.63 ± 0.06 mL | MP after treatment [1, 5]: 70.0±4.1 mmHg | BVC before treatment ([1]; 1000 µg/kg i.v. group): 0.64 ± 0.05 mL | MP before treatment ([1]; 1000 µg/kg i.v. group): 104.6±6.4 mmHg | BVC % change [1, 6]: +29% | MP % change [1, 6]: -13% | BVC after treatment [1, 6]: 0.83 ± 0.07 mL | MP after treatment [1, 6]: 91.0±6.3 mmHg | BVC before treatment ([1]; 1 mg/kg p.o. group): 0.52 ± 0.07 mL | MP before treatment ([1]; 1 mg/kg p.o. group): 96.0±8.4 mmHg | MP % change [1, 7]: -2% | BVC after treatment [1, 7]: 0.60 ± 0.08 mL | MP after treatment [1, 7]: 93.7±7.2 mmHg | BVC before treatment ([1]; 2000 µg/kg i.v. group): 0.48 ± 0.04 mL | MP before treatment ([1]; 2000 µg/kg i.v. group): 101.8±10.9 mmHg | BVC % change [1, 8]: +32% | MP % change [1, 8]: -20% | BVC after treatment [1, 8]: 0.63 ± 0.05 mL | MP after treatment [1, 8]: 81.5±14.1 mmHg | BVC before treatment ([1]; 3 mg/kg p.o. group): 0.67 ± 0.07 mL | MP before treatment ([1]; 3 mg/kg p.o. group): 112.5±6.5 mmHg | BVC % change [1, 9]: +35% | MP % change [1, 9]: -4% | BVC after treatment [1, 9]: 0.91 ± 0.10 mL | MP after treatment [1, 9]: 107.6±9.2 mmHg | BVC before treatment ([1]; 10 mg/kg p.o. group): 0.54 ± 0.06 mL | MP before treatment ([1]; 10 mg/kg p.o. group): 90.2±7.1 mmHg | BVC % change [1, 10]: +37% | MP % change [1, 10]: -4% | BVC after treatment [1, 10]: 0.73 ± 0.10 mL | MP after treatment [1, 10]: 86.6±7.6 mmHg | effect on MP (in words) [1, 11]: inactive

Ki [3]: 0.13 nM
Compound: O=C(C1CCCCC1)N(CCN1CCN(c2cccc3[nH]ccc23)CC1)c1ccccn1 [Compound B, N-{2-[4-(4-Indolyl)-1-piperazinyl]-ethyl}-N-(2-pyridyl)-cyclohexanecarboxamide]
ID50 (95%) C.L., antagonistic activity for the pre-synaptic 5-HT1A receptor [2]: 1.9 (1.0-3.7) µg/kg s.c.

Compound: CCN(CC)CC#CCOC(=O)C(O)(c1ccccc1)C1CCCCC1 (centres unmarked) [Oxybutynin, oxybutynin]
BVC before treatment ([1]; 100 µg/kg i.v. group): 0.82 ± 0.15 mL | MP before treatment ([1]; 100 µg/kg i.v. group): 95.2±9.2 mmHg | BVC % change [1, 4]: +9% | MP % change [1, 4]: -19% | BVC after treatment [1, 4]: 0.89 ± 0.18 mL | MP after treatment [1, 4]: 77.4±10.3 mmHg | BVC before treatment ([1]; 300 µg/kg i.v. group): 0.83 ± 0.13 mL | MP before treatment ([1]; 300 µg/kg i.v. group): 82.3±8.7 mmHg | BVC % change [1, 5]: 0% | MP % change [1, 5]: -39% | BVC after treatment [1, 5]: 0.83 ± 0.12 mL | MP after treatment [1, 5]: 50.5±6.3 mmHg | BVC before treatment ([1]; 1000 µg/kg i.v. group): 0.94 ± 0.19 mL | MP before treatment ([1]; 1000 µg/kg i.v. group): 110.9±10.2 mmHg | BVC % change [1, 6]: +7% | MP % change [1, 6]: -73% | BVC after treatment [1, 6]: 1.00 ± 0.18 mL | MP after treatment [1, 6]: 29.6±5.6 mmHg | BVC before treatment ([1]; 1 mg/kg p.o. group): 0.56 ± 0.11 mL | MP before treatment ([1]; 1 mg/kg p.o. group): 92.1±13.3 mmHg | BVC % change [1, 7]: +31% | MP % change [1, 7]: -16% | BVC after treatment [1, 7]: 0.74 ± 0.11 mL | MP after treatment [1, 7]: 77.3±9.8 mmHg | BVC before treatment ([1]; 3 mg/kg p.o. group): 0.54 ± 0.07 mL | MP before treatment ([1]; 3 mg/kg p.o. group): 82.1±5.1 mmHg | BVC % change [1, 9]: +18% | MP % change [1, 9]: -49% | BVC after treatment [1, 9]: 0.63 ± 0.13 mL | MP after treatment [1, 9]: 42.1±5.1 mmHg | BVC before treatment ([1]; 10 mg/kg p.o. group): 0.55 ± 0.08 mL | MP before treatment ([1]; 10 mg/kg p.o. group): 98.3±9.0 mmHg | BVC % change [1, 10]: +27% | MP % change [1, 10]: -68% | BVC after treatment [1, 10]: 0.70 ± 0.11 mL | MP after treatment [1, 10]: 31.8±3.9 mmHg | ED50 ([1]; iv, conscious rats, i.v.): ~0.4 mg/kg | ED50 ([1]; conscious rats, oral administration): ~4 mg/kg | effect on BVC (in words) [1, 11]: inactive
